Reference: a melting point compilation (Tetko et al.; mined from patent text by program, amines drawn as free bases though some values may be those of a salt)

COc1cc(C)c(C(=O)c2c(C(F)(F)F)ccnc2Cl)c(OC)c1OC showed a melting point of 59 to 62 °C.
Work on CC(C)n1cnc2c(Cl)nc(N)nc21 yielded a melting point of 135 to 136 °C.
O=C(O)c1ccc(OCCNC(=O)c2ccc(Cl)cc2)cc1 showed a melting point of 219 to 220 °C.
For Cc1nc2sc3c(c2c2[nH][nH]c(=O)c12)CCN(C(=O)OC(C)(C)C)C3, the melting point was > 300 °C.
CCOC(=O)C(C#N)=CNc1ccc(-c2ccccc2)cn1 gave a melting point of 119 to 126 °C.
CC(=O)Nc1nc2c(Oc3cc(-c4ccc(C(F)(F)F)nc4N(C)CC4CCCCN4CC(C)C)ncn3)cccc2s1 (centres undefined) showed a melting point of 123 to 125 °C.
Compound Clc1ccc(C(CBr)OC2CCCC(COc3ccc(Cl)cc3Cl)O2)cc1 (centres undefined) has a melting point of 86 to 87 °C.
With CC(C)n1nc(-c2sc(NC(=O)c3ccc(CN4CCCC4)cc3)nc2-c2ccccc2)ccc1=O the melting point was 221 to 222 °C.
For O=C1C(=O)c2ccccc2C2=C1SCC1(CCN(CC(O)CN3CCOCC3)CC1)O2 (centres undefined), the melting point was 75 to 78 °C.
Cc1ccc(S(=O)(=O)NCCc2ccc(O)cc2)cc1 gave a melting point of 169 to 172 °C.
Work on CCOC(=O)C(C)Oc1ccc(C(=O)Nc2ccccc2Sc2ccccc2-c2nnn[nH]2)cc1 (centres undefined) yielded a melting point of 157 to 158 °C.
For Nc1ncnc2c1c(-c1ccc(Oc3ccccc3)cc1)c(Br)n2C1CCOC1 (centres undefined), the melting point was 205 to 206 °C.
N#Cc1cc(C(O)CN(Cc2ccccc2)Cc2ccccc2)cc2c1NCC2 (centres undefined) gave a melting point of 139 to 140 °C.
Compound COCCOc1ccc2c(Cl)c(C#N)cnc2c1 has a melting point of 143 to 145 °C.
Compound Cc1cc(C)cc(NC(=O)CO)c1 has a melting point of 114 °C.
CC12CCC3=C(CCc4cc(O)ccc43)C1CCC2=O (centres undefined) showed a melting point of 225 to 227 °C.
COc1ccc(-c2ccc(=O)n(Cc3nc(-c4ccc(F)cc4)no3)c2)cc1 gave a melting point of 123 °C.
For CCC(=O)Nc1ccc(OC)cc1OC, the melting point was 63 to 65 °C.
In the case of COC(=O)C1(NC(=O)Cc2cc(-c3ccc(Cl)cc3)ccc2Cl)CCC(F)(F)CC1, the melting point is reported as 146 to 147 °C.
COc1cc2c(cc1I)CCC2=O showed a melting point of 140 °C.
CCOC(=O)c1ncsc1-c1cc(F)cc(F)c1 gave a melting point of 112 to 113 °C.
COC(=O)c1c(N)ncn1C1c2ccsc2CC1(C)C (centres undefined) gave a melting point of 161 to 162 °C.
With O=C(O)c1cnn2c(C(F)(F)F)cc(-c3ccc(C(F)(F)F)c(Cl)c3)nc12 the melting point was 244 °C.
CC(O)CCCCCCCC(O)c1ccc(OCc2ccccc2)c(OCc2ccccc2)c1 (centres undefined) showed a melting point of 66 °C.
With O=c1[nH]c2ccccc2n1C1CCN(CC(O)COc2ccc(F)cc2)CC1 (centres undefined) the melting point was 175 to 176 °C.
In the case of COC1=C(OC)C(=O)C(CCCCCCCCCCCCO)=C(C)C1=O, the melting point is reported as 63 °C.
For COc1ccc2c(c1)CCC1CCNC(=O)C(CC(C)N(Cc3ccccc3)C(C)C)=C21 (centres undefined), the melting point was 205 to 207 °C.
In the case of COc1cc(C=O)c([N+](=O)[O-])c(OC)c1, the melting point is reported as 104 to 105 °C.
Work on CS(=O)(=O)c1ccc(-c2cc(-c3ccc(F)cc3)n3c2CCC3)cc1 yielded a melting point of 176 to 179 °C.
In the case of Brc1ccc2cc(OCc3ccccc3)c(C34CC5CC(CC(C5)C3)C4)cc2c1, the melting point is reported as 150 to 151 °C.
NC(=O)N1CCC2(CC1)CN(c1ccccc1[N+](=O)[O-])c1ccccc12 showed a melting point of 218 to 219 °C.
CCOC(=O)C1CCCCN1C(=O)[C@H](CCCNC(=N)N)NS(=O)(=O)c1ccc2cc(OC)ccc2c1 (some centres undefined) showed a melting point of 192 to 193 °C.
With CCCCn1c(N)c(N=O)c(=O)n(CCCC)c1=O the melting point was 199 to 205 °C.
Work on CCCCOCCOc1ccc(-c2ccc3c(c2)C=C(C(=O)O)CCN3c2ccccc2)cc1 yielded a melting point of 129 to 131 °C.
COc1ccc(-c2ncc(-c3cnc(-c4ccccc4)[nH]3)cn2)cc1OC showed a melting point of 231 °C.
For CC(c1oc2ccccc2c(=O)c1-c1cccc(F)c1)n1nc(-c2cc(O)cc(Cl)c2)c2c(N)ncnc21 (centres undefined), the melting point was 122 to 124 °C.
Work on Brc1ccc2cnncc2c1 yielded a melting point of 140 to 143 °C.
Work on CCc1nc2c(N)nc3ccccc3c2n1CCCCNS(=O)(=O)c1ccccc1 yielded a melting point of 181 to 182 °C.
Compound COc1ccc(C2(C#Cc3cccc(-c4nnc(C)s4)c3)CCCC(=O)C2)cc1OC1CCCC1 (centres undefined) has a melting point of 97 to 99 °C.
CCCCCCCCCCCCCCCc1cc2cc(C(=O)O)ccc2[nH]1 gave a melting point of 108 to 110 °C.
OCc1c[nH]c(-c2ccc(O)cc2)n1 showed a melting point of 212 to 214 °C.
Work on CNC(=O)Nc1coc2ccccc2c1=O yielded a melting point of 254 °C.
Compound Cc1cc(C)cc(OC(C)(C)C(=O)O[C@H]2C[C@H](O)C=C3C=C[C@H](C)[C@H](CC[C@@H]4C[C@@H](O)CC(=O)O4)[C@H]32)c1 has a melting point of 129 to 131 °C.
For CCCn1c(COCC)nc2c(N)nc3ccc(OC4CCN(C(=O)C(C)C)CC4)cc3c21, the melting point was 177 to 179 °C.
With CCN(CC)CCOc1ccc(CCNC(=O)c2ccc(-c3ccc(Cl)cc3)cc2)cc1 the melting point was 178 to 179 °C.
Compound CN(C)Cc1nnc2n1-c1ccc(Br)cc1C(c1ccccn1)=NC2 has a melting point of 163 to 164 °C.
In the case of N#CC(C#N)=CN(N=C(C#N)C#N)c1ccc([N+](=O)[O-])cc1, the melting point is reported as 179 to 181 °C.
In the case of CS(=O)(=O)c1cc(C(=O)O)cc(NCc2ccccc2)c1Cl, the melting point is reported as 254 to 256 °C.
With N=C(NCc1ccccc1)NN=Cc1c(Cl)cccc1Cl the melting point was 70 to 80 °C.
Work on CCOC1CCC(=O)N1S(=O)(=O)C=Cc1ccccc1 (centres undefined) yielded a melting point of 61 to 63 °C.
O=c1c2cc(F)ccc2ncn1CCN1CC=C(c2c[nH]c3ccccc23)CC1 gave a melting point of 138 °C.
Work on Nc1cccc(-c2ccc(CCN3CCN(C(=O)Nc4ccccc4)CC3)cc2)n1 yielded a melting point of 60 °C.
O=[N+]([O-])c1cnc2ccc(F)cc2c1O gave a melting point of 313 °C.
NS(=O)(=O)c1cc(Br)ccc1F gave a melting point of 153 to 154 °C.
With COC(=O)C=Cc1cc(OC)ccc1-c1ccccc1 the melting point was 175 to 177 °C.
For CC1(C)[C@@H](CNS(C)(=O)=O)CC[C@@]1(C)NCC(=O)N1C[C@@H](F)C[C@H]1C#N, the melting point was 157 to 160 °C.
CC(C)C(=O)NN(C)C gave a melting point of 94 to 96 °C.
Work on O=C(Nc1cccc(F)n1)Nc1cccc2c1C1CCCCN1C2=O (centres undefined) yielded a melting point of 254 °C.
Cn1c(=O)c(=O)[nH]c2cc(C(F)(F)F)ccc21 showed a melting point of 255 °C.
With ClCc1cc2cccnc2s1 the melting point was 47 to 49 °C.
Compound Clc1conc1OC1CN2CCC1CC2 (centres undefined) has a melting point of 68 to 69 °C.
O=C(O)C1c2ccccc2COc2ccc(Br)cc21 (centres undefined) showed a melting point of 166 to 167 °C.
In the case of COc1ccc(-c2[nH]nc3c2C(=O)c2c(NC(C)=O)cccc2-3)cc1, the melting point is reported as 174 to 175 °C.
Work on CSc1ccc2c(c1)CCN2C(=O)Nc1cccnc1 yielded a melting point of 160 to 162 °C.
Work on O=C(O)[C@@H]1CCCN1C(=O)C(Sc1nc2cc(Cl)ccc2s1)c1ccccc1 (some centres undefined) yielded a melting point of 160 to 161 °C.
CC(C(=NO)c1ccc(Cl)cc1Cl)c1cccnc1 (centres undefined) showed a melting point of 163 to 165 °C.
For O=c1oc(=O)n(-c2cccc(F)c2)c2ncccc12, the melting point was 164 to 166 °C.
With CNCc1nc(-c2cc(C(C)(C)C)c(O)c(C(C)(C)C)c2)cs1 the melting point was 136 °C.
In the case of CC(=O)OC1CCC2C3CCC4C(=O)CCCC4(C)C3CCC12C (centres undefined), the melting point is reported as 160 to 163 °C.
In the case of COC(=O)Nc1cn2nc(OCc3cc(OC)ccc3OC)ccc2n1, the melting point is reported as 228 to 230 °C.
With CCN(CC)c1ccc(-c2cc(-c3ccc(C(=O)O)cc3)ccc2OCCO)cc1C(C)(C)C the melting point was 216 °C.
COC(=O)COc1ccc(CC2SC(=O)NC2=O)cc1 (centres undefined) showed a melting point of 100 to 106 °C.
With CC(=O)Nc1ccc(F)c(-c2ccccn2)c1F the melting point was 132 to 133 °C.
With CCOc1ccc(C23CNCC2C3)cc1 (centres undefined) the melting point was 48 to 49 °C.
